Measured values reported in PubChem BioAssay (NCI).
Several values for one entry are separate records, joined by “and”; a condition that tells them apart may be missing. Equal entries are not always repeated.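 In this assay, cells in 96-well plates receive the compound at five concentrations for 48 hours. Endpoints are linearly interpolated between the surrounding concentrations. GI50 is the concentration that inhibits growth by half. TGI is the concentration that stops growth completely.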

Test system: SK-MEL-2 melanoma
Assay: DTP human tumour cell line panel, 48 h

| Compound | TGI | GI50 [µM] |
| --- | --- | --- |
| Cc1c(N2C(=O)CS(=O)(=O)C2c2cccc(Oc3ccccc3)c2)c(=O)n(-c2ccccc2)n1C (configuration not stated) | > 100 µM |  |
| COc1cc2c(ccc3c4cc(OC)c(OC)cc4c[n+](C)c23)cc1O | > 71.5 µM |  |
| CNC(=O)OCc1c(CO)nc(SC)n1C | > 100 µM |  |
| CN(C)CC(CC1=C(CC(CN(C)C)N(C)C)CCC1)N(C)C (configuration not stated) | > 100 µM |  |
| CCC1CN(C(=O)c2ccccc2)C(Cc2c[nH]c3ccccc23)C(=O)C1CC(=O)OC (configuration not stated) | > 100 µM |  |
| CC12CC3OC(=O)C1COC14OC5(C2C1=O)C(O)(CCC1C4CC(O)C2(O)CC=CC(=O)C12C)C(=O)OC35C (configuration not stated) | > 100 µM |  |
| COc1ccc(C(=O)/C=C/c2cccc([N+](=O)[O-])c2)c(OC)c1 | > 50 µM | 12.4 |
| CCOC(=O)C(NC(=O)c1ccco1)(Nc1nc2ccc(OCC)cc2s1)C(F)(F)F (configuration not stated) | > 100 µM |  |
| CCC(C)C1=C(OC(C)=O)[N+]2([O-])Oc3ccc(-c4c(OC(C)=O)c(OC(C)=O)c(-c5ccc(OC(C)=O)cc5)c(OC(C)=O)c4OC(C)=O)cc3OC2(C(C)CC)C(=O)N1OC(C)=O (configuration not stated) | 43.2 µM |  |
| O=C(O)C1C2CCC(O2)C1C(=O)Nc1cccc2cccnc12 (configuration not stated) | > 100 µM |  |
| COc1cccc2c1Cc1cc(-c3ccccc3)[n+](C)n1-2 | 50 µM |  |
| O=C(OCN1C(=O)C2C3C=CC(C2C1=O)C1C2C(=O)N(COC(=O)C4CCCN4)C(=O)C2C31)C1CCCN1 (configuration not stated) | > 31.6 µM |  |
| O=C(C[n+]1ccc2ccccc2c1)c1ccc2ccc3ccccc3c2c1 | 15.9 µM |  |
| NCCCCc1cc(O)c2c(c1O)C(=O)c1ccccc1C2=O | 32.4 µM |  |
| Cc1ccccc1C(=O)N/N=C/c1ccc(Sc2nccn2C)c([N+](=O)[O-])c1 | > 100 µM |  |
| CCn1c(-c2ccc(N=NNc3ccc(-c4n[nH]c(=S)n4CC)cc3)cc2)n[nH]c1=S | 4.45 µM |  |
| CC(=O)C1=C(C)N(c2ccc(C)cc2)C2(O)C=CC(=O)C3C(=O)N(c4ccccc4)C(=O)C132 (configuration not stated) | 28.8 µM |  |
| COc1ccc2c(c1)[nH]c1c(/C=C/c3ccccc3)nccc12 | 33.2 µM |  |
| Clc1cc2c(cc1Cl)CC(NCCN1CCCC1)CC2 (configuration not stated) | 34.9 µM |  |
| [N-]=[N+]=CC(=O)c1ccccc1C#CCCc1ccccc1 | 79.7 µM |  |
| CCN(CC(=O)O)C(=O)c1cccnc1 | > 100 µM |  |
| NCCSC(c1ccccc1)c1ccccc1 | 32.8 µM |  |
| CCCCCCCCC/C=C/C=C/C(=O)NCC(=O)NC1C(O)C(O)C(Nc2ncnc3nc[nH]c23)OC1C(O)CO (configuration not stated) | 0.057 µM and 0.136 µM |  |
| COc1nc(C#CC2(O)CCCCC2)nc(OC)n1 | 27 µM |  |
| C[C@H](CCC(=O)O)[C@H]1CC[C@@]2(C)[C@@H]3C(=O)C[C@H]4C(C)(C)[C@@H](O)CC[C@]4(C)[C@H]3C(=O)C[C@]12C | > 100 µM |  |

Test system: SK-MEL-5 melanoma
Assay: DTP human tumour cell line panel, 48 h

| Compound | TGI [µM] | GI50 [µM] |
| --- | --- | --- |
| CCOC(=O)C1=NN(c2ccc(C)cc2)C2=CC(C)=NN(C)C(=S)N21 | > 100 |  |
| O=C(c1cccs1)N(C(=S)OC12CC3CC(CC(C3)C1)C2)c1ccccc1 | 55.8 |  |
| C(=N\NC1=NCCN1)/c1ccc(-c2cn3cc(/C=N/NC4=NCCN4)ccc3n2)cc1 | > 100 |  |
| CC1CC[C@@]2(OC1)OC1C[C@H]3[C@@H]4CC=C5CC(OC6OC(CO)C(OC7OC(CO)C(O)C(OC8OCC(O)C(O)C8O)C7OC7OC(CO)C(O)C(O)C7O)C(O)C6O)CCC5(C)[C@H]4CCC3(C)C1[C@@H]2C (some centres not stated) | 8.43 |  |
| Nc1ccccc1S(=O)(=O)c1ccccc1 | > 100 |  |
| Cc1c(N2C(=O)CS(=O)(=O)C2c2cccc(Oc3ccccc3)c2)c(=O)n(-c2ccccc2)n1C (configuration not stated) | > 100 |  |
| COc1cc2c(ccc3c4cc(OC)c(OC)cc4c[n+](C)c23)cc1O | 52.7 |  |
| CNC(=O)OCc1c(CO)nc(SC)n1C | > 100 |  |
| CN(C)CC(CC1=C(CC(CN(C)C)N(C)C)CCC1)N(C)C (configuration not stated) | > 100 |  |
| CCC1CN(C(=O)c2ccccc2)C(Cc2c[nH]c3ccccc23)C(=O)C1CC(=O)OC (configuration not stated) | > 100 |  |
| CC12CC3OC(=O)C1COC14OC5(C2C1=O)C(O)(CCC1C4CC(O)C2(O)CC=CC(=O)C12C)C(=O)OC35C (configuration not stated) | > 100 |  |
| O=c1cccccc1[O-].O=c1cccccc1[O-].[O]=[U+2]=[O] | > 100 |  |
| COc1ccc(C(=O)/C=C/c2cccc([N+](=O)[O-])c2)c(OC)c1 | > 50 | 2.37 |
| CCOC(=O)C(NC(=O)c1ccco1)(Nc1nc2ccc(OCC)cc2s1)C(F)(F)F (configuration not stated) | 47.8 |  |
| CCC(C)C1=C(OC(C)=O)[N+]2([O-])Oc3ccc(-c4c(OC(C)=O)c(OC(C)=O)c(-c5ccc(OC(C)=O)cc5)c(OC(C)=O)c4OC(C)=O)cc3OC2(C(C)CC)C(=O)N1OC(C)=O (configuration not stated) | 23 |  |
| COc1cccc2c1Cc1cc(-c3ccccc3)[n+](C)n1-2 | 21.7 |  |
| O=C(OCN1C(=O)C2C3C=CC(C2C1=O)C1C2C(=O)N(COC(=O)C4CCCN4)C(=O)C2C31)C1CCCN1 (configuration not stated) | > 100 |  |
| O=C(C[n+]1ccc2ccccc2c1)c1ccc2ccc3ccccc3c2c1 | 14.4 |  |
| NCCCCc1cc(O)c2c(c1O)C(=O)c1ccccc1C2=O | 28.3 |  |
| Cc1ccccc1C(=O)N/N=C/c1ccc(Sc2nccn2C)c([N+](=O)[O-])c1 | > 100 |  |
| CCn1c(-c2ccc(N=NNc3ccc(-c4n[nH]c(=S)n4CC)cc3)cc2)n[nH]c1=S | 3.48 |  |
| CC(=O)C1=C(C)N(c2ccc(C)cc2)C2(O)C=CC(=O)C3C(=O)N(c4ccccc4)C(=O)C132 (configuration not stated) | 34 |  |
| COc1ccc2c(c1)[nH]c1c(/C=C/c3ccccc3)nccc12 | 36.6 |  |
| Clc1cc2c(cc1Cl)CC(NCCN1CCCC1)CC2 (configuration not stated) | 14.7 |  |
| [N-]=[N+]=CC(=O)c1ccccc1C#CCCc1ccccc1 | 32.2 |  |
| NCCSC(c1ccccc1)c1ccccc1 | 31.1 |  |
| CCCCCCCCC/C=C/C=C/C(=O)NCC(=O)NC1C(O)C(O)C(Nc2ncnc3nc[nH]c23)OC1C(O)CO (configuration not stated) | 0.12 |  |
| COc1nc(C#CC2(O)CCCCC2)nc(OC)n1 | 20.2 |  |
| C[C@H](CCC(=O)O)[C@H]1CC[C@@]2(C)[C@@H]3C(=O)C[C@H]4C(C)(C)[C@@H](O)CC[C@]4(C)[C@H]3C(=O)C[C@]12C | > 100 |  |

Test system: SK-OV-3 ovarian
Assay: DTP human tumour cell line panel, 48 h

| Compound | TGI [µM] | GI50 [µM] |
| --- | --- | --- |
| CCOC(=O)C1=NN(c2ccc(C)cc2)C2=CC(C)=NN(C)C(=S)N21 | > 100 |  |
| O=C(c1cccs1)N(C(=S)OC12CC3CC(CC(C3)C1)C2)c1ccccc1 | > 100 |  |
| C(=N\NC1=NCCN1)/c1ccc(-c2cn3cc(/C=N/NC4=NCCN4)ccc3n2)cc1 | > 100 |  |
| CC1CC[C@@]2(OC1)OC1C[C@H]3[C@@H]4CC=C5CC(OC6OC(CO)C(OC7OC(CO)C(O)C(OC8OCC(O)C(O)C8O)C7OC7OC(CO)C(O)C(O)C7O)C(O)C6O)CCC5(C)[C@H]4CCC3(C)C1[C@@H]2C (some centres not stated) | 20.7 |  |
| Nc1ccccc1S(=O)(=O)c1ccccc1 | > 100 |  |
| Cc1c(N2C(=O)CS(=O)(=O)C2c2cccc(Oc3ccccc3)c2)c(=O)n(-c2ccccc2)n1C (configuration not stated) | > 100 |  |
| COc1cc2c(ccc3c4cc(OC)c(OC)cc4c[n+](C)c23)cc1O | > 72.2 |  |
| CNC(=O)OCc1c(CO)nc(SC)n1C | > 100 |  |
| CN(C)CC(CC1=C(CC(CN(C)C)N(C)C)CCC1)N(C)C (configuration not stated) | > 100 |  |
| CCC1CN(C(=O)c2ccccc2)C(Cc2c[nH]c3ccccc23)C(=O)C1CC(=O)OC (configuration not stated) | > 100 |  |
| CC12CC3OC(=O)C1COC14OC5(C2C1=O)C(O)(CCC1C4CC(O)C2(O)CC=CC(=O)C12C)C(=O)OC35C (configuration not stated) | > 100 |  |
| NC(=O)c1c(NC(=O)c2ccccn2)sc2c1CCC(=O)C2 | > 100 | > 100 |
| O=c1cccccc1[O-].O=c1cccccc1[O-].[O]=[U+2]=[O] | 74.5 |  |
| COc1ccc(C(=O)/C=C/c2cccc([N+](=O)[O-])c2)c(OC)c1 | > 50 | 18.9 |
| CCOC(=O)C(NC(=O)c1ccco1)(Nc1nc2ccc(OCC)cc2s1)C(F)(F)F (configuration not stated) | > 100 |  |
| CCC(C)C1=C(OC(C)=O)[N+]2([O-])Oc3ccc(-c4c(OC(C)=O)c(OC(C)=O)c(-c5ccc(OC(C)=O)cc5)c(OC(C)=O)c4OC(C)=O)cc3OC2(C(C)CC)C(=O)N1OC(C)=O (configuration not stated) | > 50 |  |
| O=C(O)C1C2CCC(O2)C1C(=O)Nc1cccc2cccnc12 (configuration not stated) | > 100 |  |
| COc1cccc2c1Cc1cc(-c3ccccc3)[n+](C)n1-2 | > 100 |  |
| O=C(OCN1C(=O)C2C3C=CC(C2C1=O)C1C2C(=O)N(COC(=O)C4CCCN4)C(=O)C2C31)C1CCCN1 (configuration not stated) | > 100 |  |
